Test system: hair cells in rat OC explants exposed to S. pneumoniae
Test: OC explants after S. pneumoniae-induced damage
Type: cell-based
Method: To induce ototoxic damage, medium was removed from the OC cultures on the day after dissection and either 200 μM sisomicin (Sigma) in full otic medium, or 10^8 cfu/ml Streptococcus pneumoniae (described below) in ampicillin-free and FBS-free otic medium were added under the transwell membrane (lower compartment) of the cultivation system. After 2 h of exposure to the ototoxic insult, OCs were carefully washed 3 times and culture was continued for 4 days in fresh full otic medium.
A clinical isolate of S. pneumoniae, serotype 3 was used as previously described ([Leib et al., 2000]; [Perny et al., 2017]). […] Bacteria were diluted to the desired optical density (OD570 nm) and the final inoculum concentration was determined by plating serial dilutions on Columbia sheep blood agar. […]
Dividing cells were labeled with, 5-ethyl-2′-deoxyuridine (EdU) and detected with Click-it Plus kit (Life Technologies). […]
Image processing was performed with the open-source image processing software FIJI, version 2.0 ([Schindelin et al., 2012]). Hair cells were quantified by counting Pou4f3 or Myo7a positive cells of the organ of Corti at three random microscopic fields for each cochlear region (base, middle, and apex) covering in total at least 1,200 μm. The number of hair cells (IHCs and OHCs) is expressed as unit per 100 μm. […]

COc1ccc2c(c1)N1CCC(C)(C)C1=CC(=O)[C@H]2NC(=O)[C@H](C)NC(=O)CCC(F)(F)F [CPD3]
OHCs after S. pneumoniae damage compared to DMSO (4 days treatment after 2 h exposure): more OHCs in all turns of the organ of Corti | Pou4f3/Sox2 double-positive cells after S. pneumoniae damage (apical domain only, not statistically significant): increased occurrence
